In PubChem BioAssay AID330 (DTP/NCI, 2004):
Several values for one entry are separate records, joined by “and”; a condition that tells them apart may be missing. Identical values can stand only once. Inconclusive results and toxic doses are left out. Numbered stars: 1 amine (or outer) side, 2 acyl side, 3 side chain; on linkers, the order of the positions; unused ones are H or OH. Bridge positions count the residues as written; N and C are the ends. Square brackets hold non-standard residues; d marks the D form. Peptide text beside a SMILES is read from it. I, II: the chains in the order shown. Actinocin(1to9) = Cc1c2oc3c(C)ccc(C(=O)[*:2])c3nc-2c(C(=O)[*:1])c(N)c1=O; NMeV = CN[CH](C(=O)O)C(C)C; Aze = O=C(O)[CH]1CCN1; Sar = CNCC(=O)O

Test system: P388 leukemia ip, CD2F1 mice, survival T/C
Test: NCI In Vivo Anticancer Drug Screen. Data for tumor model P388 Leukemia (intraperitoneal) in CD2F1 (CDF1) mice
Conditions: endpoint: median survival time, higher = longer survival
Outline: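 Mice carrying the transplanted tumor received test compound or vehicle. Survival was recorded in each group, and the value is the treated-group measurement divided by that of the vehicle-treated control group.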

[1] = dose: 100.0 mg/kg/injection, schedule: Q01DX009 (ip), vehicle: saline with Tween-80
[2] = dose: 50.0 mg/kg/injection, schedule: Q01DX005 (ip), vehicle: saline with Tween-80
[3] = dose: 100.0 mg/kg/injection, schedule: Q01DX005 (ip), vehicle: saline with Tween-80
[4] = dose: 200.0 mg/kg/injection, schedule: Q01DX005 (ip), vehicle: saline with Tween-80
[5] = dose: 50.0 mg/kg/injection, schedule: Q01DX009 (ip), vehicle: saline
[6] = dose: 100.0 mg/kg/injection, schedule: Q01DX009 (ip), vehicle: saline
[7] = dose: 200.0 mg/kg/injection, schedule: Q01DX009 (ip), vehicle: saline

Oc1ccc(/C=C/c2cc(O)cc(O)c2)cc1
T/C (dose: 18.5 mg/kg/injection, schedule: Q01DX009 (ip), vehicle: Klucel (hydroxypropylcellulose) (HPC)): 101 % of control
T/C (dose: 37.0 mg/kg/injection, schedule: Q01DX009 (ip), vehicle: Klucel (hydroxypropylcellulose) (HPC)): 100 % of control
T/C (dose: 74.0 mg/kg/injection, schedule: Q01DX009 (ip), vehicle: Klucel (hydroxypropylcellulose) (HPC)): 93 % of control

CCCCNC(=S)N/N=C/c1ccccn1
T/C (dose: 25.0 mg/kg/injection, schedule: Q01DX009 (ip), vehicle: saline with Tween-80): 101 % of control
T/C (dose: 50.0 mg/kg/injection, schedule: Q01DX009 (ip), vehicle: saline with Tween-80): 94 % of control
T/C [1]: 111 % of control

COc1cccc2c1C(=O)c1c(O)c3c(c(O)c1C2=O)C[C@@](O)(CO)C[C@@H]3OC1CC(N)C(O)C(C)O1 (some centres not stated)
T/C (dose: 0.56 mg/kg/injection, schedule: Q04DX003 (ip), vehicle: water): 109 % of control
T/C (dose: 0.78 mg/kg/injection, schedule: Q01DX009 (ip), vehicle: water): 167 % of control
T/C (dose: 1.13 mg/kg/injection, schedule: Q04DX003 (ip), vehicle: water): 104 % of control
T/C (dose: 1.56 mg/kg/injection, schedule: Q01DX009 (ip), vehicle: water): 167 % of control and 183 % of control
T/C (dose: 2.25 mg/kg/injection, schedule: Q04DX003 (ip), vehicle: water): 109 % of control and 118 % of control
T/C (dose: 4.5 mg/kg/injection, schedule: Q04DX003 (ip), vehicle: water): 115 % of control and 123 % of control
T/C (dose: 6.25 mg/kg/injection, schedule: Q01DX009 (ip), vehicle: water): 88 % of control
T/C (dose: 9.0 mg/kg/injection, schedule: Q04DX003 (ip), vehicle: water): 121 % of control
T/C (dose: 18.0 mg/kg/injection, schedule: Q04DX003 (ip), vehicle: water): 119 % of control and 123 % of control
T/C (dose: 36.0 mg/kg/injection, schedule: Q04DX003 (ip), vehicle: water): 97 % of control

O=C1c2cc([N+](=O)[O-])cc3cc([N+](=O)[O-])cc(c23)C(=O)N1CCCNCCNCCCN1C(=O)c2cc([N+](=O)[O-])cc3cc([N+](=O)[O-])cc(c23)C1=O
T/C [2]: 100 % of control
T/C [3]: 100 % of control
T/C [4]: 100 % of control

Cc1ccc(C2(O)c3ccccc3N=NN2C)cc1 (configuration not stated)
T/C [2]: 100 % of control
T/C [3]: 100 % of control
T/C [4]: 96 % of control

Cc1c2oc3c(C)ccc(C(=O)NC4C(=O)NC(C(C)C)C(=O)N5CCCC5C(=O)N(C)CC(=O)N(C)C(C(C)C)C(=O)OC4C)c3nc-2c(C(=O)NC2C(=O)NC(C(C)C)C(=O)N3CCC3C(=O)N(C)CC(=O)N(C)C(C(C)C)C(=O)OC2C)c(N)c1=O (configuration not stated) (I: TV[Aze][Sar][NMeV] / II: TVP[Sar][NMeV]; ester I:1-I:C, II:1-II:C; linker I:N-II:N via Actinocin(1to9); configuration not given here)
T/C (dose: 0.05 mg/kg/injection, schedule: Q01DX009 (ip), vehicle: water): 214 % of control
T/C (dose: 0.08 mg/kg/injection, schedule: Q04DX003 (ip), vehicle: saline): 96 % of control
T/C (dose: 0.15 mg/kg/injection, schedule: Q04DX003 (ip), vehicle: saline): 102 % of control
T/C (dose: 0.3 mg/kg/injection, schedule: Q04DX003 (ip), vehicle: saline): 105 % of control
T/C (dose: 12.5 micrograms/kg/injection, schedule: Q01DX009 (ip), vehicle: saline): 123 % of control
T/C (dose: 12.5 micrograms/kg/injection, schedule: Q01DX009 (ip), vehicle: water): 167 % of control
T/C (dose: 19.4 micrograms/kg/injection, schedule: Q01DX009 (ip), vehicle: saline + alcohol): 150 % of control
T/C (dose: 25.0 micrograms/kg/injection, schedule: Q01DX009 (ip), vehicle: water): 200 % of control
T/C (dose: 32.4 micrograms/kg/injection, schedule: Q01DX009 (ip), vehicle: saline + alcohol): 165 % of control
T/C (dose: 50.0 micrograms/kg/injection, schedule: Q01DX009 (ip), vehicle: saline): 155 % of control
T/C (dose: 50.0 micrograms/kg/injection, schedule: Q01DX009 (ip), vehicle: water): 266 % of control
T/C (dose: 54.0 micrograms/kg/injection, schedule: Q01DX009 (ip), vehicle: saline + alcohol): 177 % of control
T/C (dose: 90.0 micrograms/kg/injection, schedule: Q01DX009 (ip), vehicle: saline + alcohol): 186 % of control
T/C (dose: 100.0 micrograms/kg/injection, schedule: Q01DX009 (ip), vehicle: saline): 171 % of control
T/C (dose: 100.0 micrograms/kg/injection, schedule: Q01DX009 (ip), vehicle: water): 89 % of control
T/C (dose: 150.0 micrograms/kg/injection, schedule: Q01DX009 (ip), vehicle: saline + alcohol): 238 % of control
T/C (dose: 200.0 micrograms/kg/injection, schedule: Q01DX009 (ip), vehicle: saline): 250 % of control
T/C (dose: 250.0 micrograms/kg/injection, schedule: Q01DX009 (ip), vehicle: saline + alcohol): 100 % of control
T/C (dose: 400.0 micrograms/kg/injection, schedule: Q01DX009 (ip), vehicle: saline): 86 % of control

COC(=O)C1Cc2cncn2C(=O)N1 (configuration not stated)
T/C (dose: 8.0 mg/kg/injection, schedule: Q01DX009 (ip), vehicle: water): 108 % of control
T/C (dose: 16.0 mg/kg/injection, schedule: Q01DX009 (ip), vehicle: water): 100 % of control
T/C (dose: 32.0 mg/kg/injection, schedule: Q01DX009 (ip), vehicle: water): 103 % of control
T/C (dose: 64.0 mg/kg/injection, schedule: Q01DX009 (ip), vehicle: water): 107 % of control

CC(=O)OCC1OC(n2cnc3c(=S)nc(N)[nH]c32)CC1OC(C)=O (configuration not stated)
T/C (dose: 1.25 mg/kg/injection, schedule: Q04DX003 (ip), vehicle: saline with Tween-80): 102 % of control
T/C (dose: 2.5 mg/kg/injection, schedule: Q04DX003 (ip), vehicle: saline with Tween-80): 106 % of control
T/C (dose: 5.0 mg/kg/injection, schedule: Q04DX003 (ip), vehicle: saline with Tween-80): 113 % of control and 123 % of control
T/C (dose: 20.0 mg/kg/injection, schedule: Q04DX003 (ip), vehicle: saline with Tween-80): 156 % of control and 158 % of control and 159 % of control
T/C (dose: 30.0 mg/kg/injection, schedule: Q04DX003 (ip), vehicle: saline with Tween-80): 174 % of control

CC(C)N1COC(c2ccccc2)C1 (configuration not stated)
T/C (dose: 12.5 mg/kg/injection, schedule: Q01DX005 (ip), vehicle: saline): 106 % of control and 88 % of control
T/C (dose: 25.0 mg/kg/injection, schedule: Q01DX005 (ip), vehicle: saline): 123 % of control and 96 % of control
T/C (dose: 50.0 mg/kg/injection, schedule: Q01DX005 (ip), vehicle: saline): 100 % of control and 110 % of control and 117 % of control
T/C (dose: 100.0 mg/kg/injection, schedule: Q01DX005 (ip), vehicle: saline): 124 % of control

CCC(=O)OC1CCC2C3CCC4=CC(=O)CCC4(C)C3CCC12C (configuration not stated)
T/C [1]: 95 % of control
T/C (dose: 100.0 mg/kg/injection, schedule: Q04DX003 (ip), vehicle: saline with Tween-80): 95 % of control
T/C (dose: 200.0 mg/kg/injection, schedule: Q01DX009 (ip), vehicle: saline with Tween-80): 104 % of control
T/C (dose: 200.0 mg/kg/injection, schedule: Q04DX003 (ip), vehicle: saline with Tween-80): 100 % of control
T/C (dose: 400.0 mg/kg/injection, schedule: Q01DX009 (ip), vehicle: saline with Tween-80): 95 % of control
T/C (dose: 400.0 mg/kg/injection, schedule: Q04DX003 (ip), vehicle: saline with Tween-80): 100 % of control

NOCc1csc(N)n1
T/C (dose: 75.0 mg/kg/injection, schedule: Q01DX009 (ip), vehicle: saline): 91 % of control
T/C (dose: 150.0 mg/kg/injection, schedule: Q01DX009 (ip), vehicle: saline): 91 % of control
T/C (dose: 300.0 mg/kg/injection, schedule: Q01DX009 (ip), vehicle: saline): 91 % of control

CNP(=O)(N(C)C)N(C)C
T/C [5]: 96 % of control
T/C [6]: 98 % of control
T/C [7]: 106 % of control

Cn1nc(C#N)c(=O)[nH]c1=O
T/C (dose: 12.5 mg/kg/injection, schedule: Q01DX005 (ip), vehicle: saline with Tween-80): 99 % of control
T/C (dose: 25.0 mg/kg/injection, schedule: Q01DX005 (ip), vehicle: saline with Tween-80): 97 % of control
T/C [2]: 99 % of control and 100 % of control

[Cl][Pt+2][Cl].[NH-]c1ccccc1[NH-]
T/C (dose: 6.25 mg/kg/injection, schedule: Q04DX002 (ip), vehicle: saline with Tween-80): 163 % of control
T/C (dose: 12.5 mg/kg/injection, schedule: Q04DX002 (ip), vehicle: saline with Tween-80): 193 % of control
T/C (dose: 12.5 mg/kg/injection, schedule: Q04DX002 (ip), vehicle: saline): 167 % of control
T/C (dose: 25.0 mg/kg/injection, schedule: Q04DX002 (ip), vehicle: saline with Tween-80): 110 % of control

CSCNc1ncnc2c1ncn2C1OC(CO)C(O)C1O (configuration not stated)
T/C (dose: 100.0 mg/kg/injection, schedule: Q04DX002 (ip), vehicle: saline with Tween-80): 120 % of control

CCN(CCCO)CCCO
T/C [5]: 102 % of control
T/C [6]: 93 % of control
T/C [7]: 95 % of control
